According to patent US20240132431A1, “METHOD FOR ALKYLATING ACIDIC FUNCTIONAL GROUP” (Chugai Seiyaku Kabushiki Kaisha, priority 2021, published 2024):

Target: T1, Bcl-2 protein (Recombinant Human Bcl-2 Protein) (Homo sapiens, UniProt P10415)
T1 construct: purchased Novus NBP2-34889
Assay: Binding evaluation of mixture library compounds to Bcl-2 using AS-MS (affinity selection mass spectrometry)
Settings: for ASMS ratio (%) n = 1: replicate n = 1; for ASMS ratio (%) n = 1 / ASMS ratio (%) n = 2: ASMS Ratio(%)=(A−C)/B×100; for ASMS ratio (%) n = 2: replicate n = 2
How it was run: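 Bcl-2 binding is scored from LC/MS signal retained with protein through gel-filtration spin columns, normalised to unfiltered and protein-free controls. Incubation: 20 μM protein, […] per compound, 1 h, 23° C.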

[1] = AS-MS on the mixture of 1200 library compounds
[2] = AS-MS, mixture of 1200 compounds, Bcl-2

T1 sequence (P10415 whole entry): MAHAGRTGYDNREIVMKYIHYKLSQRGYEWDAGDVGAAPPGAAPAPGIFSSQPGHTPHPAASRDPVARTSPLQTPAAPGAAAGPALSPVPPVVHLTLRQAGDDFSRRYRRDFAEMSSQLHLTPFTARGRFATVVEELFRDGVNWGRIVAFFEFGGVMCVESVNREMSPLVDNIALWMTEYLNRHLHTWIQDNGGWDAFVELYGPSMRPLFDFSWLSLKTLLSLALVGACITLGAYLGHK

CCOc1cccc(-c2ccc(CN3CCN(c4ccc(C(=O)NS(=O)(=O)c5ccc(NCCSc6ccccc6)c(C(F)(F)F)c5)cc4)CC3)c(OC)c2)c1 [B2R053-01, 4-[4-[[4-(3-Ethoxyphenyl)-2-methoxyphenyl]methyl]piperazin-1-yl]-N-[4-(2-phenylsulfanylethylamino)-3-(trifluoromethyl)phenyl]sulfonylbenzamide]
ASMS ratio (%) (n = 1): −15.0%
ASMS ratio (%) (n = 2): 0.0%

CCOc1cncc(-c2cc(CN3CCN(c4ccc(C(=O)N(CC)CC)cc4)CC3)cc(C(F)(F)F)c2)c1 [B4J062-01, 4-[4-[[3-(5-Ethoxypyridin-3-yl)-5-(trifluoromethyl)phenyl]methyl]piperazin-1-yl]-N,N-diethylbenzamide]
ASMS ratio (%) n = 1 (AS-MS, mixture library, Bcl-2): 0.0%
ASMS ratio (%) n = 2 (AS-MS, mixture library, Bcl-2): 0.0%

CCOc1cccc(-c2cc(CN3CCN(c4ccc(C(=O)NS(=O)(=O)C(C)(C)C)cc4)CC3)cc(OC(C)C)c2)c1 [B2L057-01, N-tert-Butylsulfonyl-4-[4-[[3-(3-ethoxyphenyl)-5-propan-2-yloxyphenyl]methyl]piperazin-1-yl]benzamide]
ASMS ratio (%) (n = 1): 0.0%
ASMS ratio (%) (n = 2): 0.0%

CCOc1cncc(-c2ccc(CN3CCN(c4ccc(C(=O)NS(C)(=O)=O)cc4)CC3)cc2F)c1 [B2I052-01, 4-[4-[[4-(5-Ethoxypyridin-3-yl)-3-fluorophenyl]methyl]piperazin-1-yl]-N-methylsulfonylbenzamide]
ASMS ratio (%) (n = 1): 0.0%
ASMS ratio (%) (n = 2): 0.0%

4-[4-[[4-(5-Ethoxypyridin-3-yl)-2-methoxyphenyl]methyl]piperazin-1-yl]-N-propylbenzamide [B1M099-01]
ASMS ratio (%) n = 1 [1]: −0.7%
ASMS ratio (%) n = 2 [1]: −0.3%

CCOc1cncc(-c2cc(CN3CCN(c4ccc(C(=O)NS(=O)(=O)c5ccc(NCCSc6ccccc6)c([N+](=O)[O-])c5)nn4)CC3)cc(OCC)c2)c1 [B2Q082-01, 6-[4-[[3-Ethoxy-5-(5-ethoxypyridin-3-yl)phenyl]methyl]piperazin-1-yl]-N-[3-nitro-4-(2-phenylsulfanylethylamino)phenyl]sulfonylpyridazine-3-carboxamide]
ASMS ratio (%) n = 1 (AS-MS, mixture library, Bcl-2): 21.3%
ASMS ratio (%) n = 2 (AS-MS, mixture library, Bcl-2): 8.5%

CCOc1cccc(-c2ccc(C(=O)N3CCN(c4ccc(C(=O)NS(=O)(=O)c5ccc(NCCSc6ccccc6)c(C(F)(F)F)c5)nn4)CC3)c3ccccc23)c1 [B2R013-01, 6-[4-[4-(3-Ethoxyphenyl)naphthalene-1-carbonyl]piperazin-1-yl]-N-[4-(2-phenylsulfanylethylamino)-3-(trifluoromethyl)phenyl]sulfonylpyridazine-3-carboxamide]
ASMS ratio (%) (n = 1): 7.5%
ASMS ratio (%) (n = 2): 7.7%

6-[4-[3-(3-Ethoxyphenyl)-5-(trifluoromethyl)benzoyl]piperazin-1-yl]-N-propylpyridazine-3-carboxamide [B1M089-01]
ASMS ratio (%) n = 1 [1]: 3.9%
ASMS ratio (%) n = 2 [1]: 0.2%

CCOc1cncc(-c2cnn(-c3cc(C(=O)N4CCN(c5ccc(C(=O)NCC67CC8CC(CC(C8)C6)C7)cc5)CC4)cc(C(F)(F)F)c3)c2)c1 [B1A044-01, N-(1-Adamantylmethyl)-4-[4-[3-[4-(5-ethoxypyridin-3-yl)pyrazol-1-yl]-5-(trifluoromethyl)benzoyl]piperazin-1-yl]benzamide]
ASMS ratio (%) n = 1 [2]: 2.6%
ASMS ratio (%) n = 2 [2]: −1.9%

CCOc1cccc(-c2ccc(CN3CCN(c4ccc(C(=O)NS(=O)(=O)CC56CC7CC(CC(C7)C5)C6)cc4)CC3)cc2C)c1 [B2A047-01, N-(1-Adamantylmethylsulfonyl)-4-[4-[[4-(3-ethoxyphenyl)-3-methylphenyl]methyl]piperazin-1-yl]benzamide]
ASMS ratio (%) n = 1 (AS-MS, mixture library, Bcl-2): 9.7%
ASMS ratio (%) n = 2 (AS-MS, mixture library, Bcl-2): 0.4%

CCOc1cccc(-c2cc(OC)c(CN3CCN(c4ccc(C(=O)NS(=O)(=O)CC56CC7CC(CC(C7)C5)C6)cc4)CC3)c(OC)c2)c1 [B2A059-01, N-(1-Adamantylmethylsulfonyl)-4-[4-[[4-(3-ethoxyphenyl)-2,6-dimethoxyphenyl]methyl]piperazin-1-yl]benzamide]
ASMS ratio (%) n = 1 (AS-MS, mixture library, Bcl-2): 0.0%
ASMS ratio (%) n = 2 (AS-MS, mixture library, Bcl-2): −42.2%

CCOc1cccc(-c2ccc(C(=O)N3CCN(c4ccc(C(=O)Nc5ccc(OC)cc5)nn4)CC3)cc2C)c1 [B1O003-01, 6-[4-[4-(3-Ethoxyphenyl)-3-methylbenzoyl]piperazin-1-yl]-N-(4-methoxyphenyl)pyridazine-3-carboxamide]
ASMS ratio (%) n = 1 [1]: 0.0%
ASMS ratio (%) n = 2 [1]: 0.0%

CCOc1cccc(-c2cc(CN3CCN(c4ccc(C(=O)NS(=O)(=O)c5ccc(NCCSc6ccccc6)c([N+](=O)[O-])c5)cc4)CC3)cc(OC(C)C)c2)c1 [B2Q057-01, 4-[4-[[3-(3-Ethoxyphenyl)-5-propan-2-yloxyphenyl]methyl]piperazin-1-yl]-N-[3-nitro-4-(2-phenylsulfanylethylamino)phenyl]sulfonylbenzamide]
ASMS ratio (%) n = 1 (AS-MS, mixture library, Bcl-2): 17.5%
ASMS ratio (%) n = 2 (AS-MS, mixture library, Bcl-2): 4.4%

CCOc1cncc(-c2cc(CN3CCN(c4ccc(C(=O)NCC(F)(F)F)nn4)CC3)cc(OC(F)(F)F)c2)c1 [B1K090-01, 6-[4-[[3-(5-Ethoxypyridin-3-yl)-5-(trifluoromethoxy)phenyl]methyl]piperazin-1-yl]-N-(2,2,2-trifluoroethyl)pyridazine-3-carboxamide]
ASMS ratio (%) n = 1 [2]: −0.6%
ASMS ratio (%) n = 2 [2]: −1.9%

CCOc1cccc(-c2cc(OC)c(CN3CCN(c4ccc(C(=O)NS(C)(=O)=O)cc4)CC3)c(OC)c2)c1 [B2I059-01]
ASMS ratio (%) (n = 1): 0.0%
ASMS ratio (%) (n = 2): 0.0%

4-[4-[3-[4-(3-Ethoxyphenyl)pyrazol-1-yl]-5-(trifluoromethyl)benzoyl]piperazin-1-yl]-N-propylbenzamide [B1M025-01]
ASMS ratio (%) n = 1 [2]: 3.6%
ASMS ratio (%) n = 2 [2]: −1.2%

6-[4-[[3-Ethoxy-5-(3-ethoxyphenyl)phenyl]methyl]piperazin-1-yl]-N-propylpyridazine-3-carboxamide [B1M010-01]
ASMS ratio (%) n = 1 [2]: 0.0%
ASMS ratio (%) n = 2 [2]: 0.0%

CCOc1cccc(-c2ccccc2CN2CCN(c3ccc(C(=O)NS(C)(=O)=O)cc3)CC2)c1 [B2I045-01, 4-[4-[[2-(3-Ethoxyphenyl)phenyl]methyl]piperazin-1-yl]-N-methylsulfonylbenzamide]
ASMS ratio (%) (n = 1): −0.3%
ASMS ratio (%) (n = 2): 0.2%

CCOc1cncc(-c2cc(CN3CCN(c4ccc(C(=O)N(C)CC56CC7CC(CC(C7)C5)C6)nn4)CC3)cc(C(F)(F)F)c2)c1 [B3A088-01, N-(1-Adamantylmethyl)-6-[4-[[3-(5-ethoxypyridin-3-yl)-5-(trifluoromethyl)phenyl]methyl]piperazin-1-yl]-N-methylpyridazine-3-carboxamide]
ASMS ratio (%) n = 1 [1]: 2.5%
ASMS ratio (%) n = 2 [1]: 2.4%

CCOc1cncc(-c2cc(OC)c(CN3CCN(c4ccc(C(=O)N(C)CC56CC7CC(CC(C7)C5)C6)cc4)CC3)c(OC)c2)c1 [B3A060-01, N-(1-Adamantylmethyl)-4-[4-[[4-(5-ethoxypyridin-3-yl)-2,6-dimethoxyphenyl]methyl]piperazin-1-yl]-N-methylbenzamide]
ASMS ratio (%) n = 1 [1]: 0.9%
ASMS ratio (%) n = 2 [1]: 0.0%

CCOc1cccc(-c2cc(CN3CCN(c4ccc(C(=O)NS(=O)(=O)C(C)(C)C)nn4)CC3)cc(C(F)(F)F)c2)c1 [B2L087-01, N-tert-Butylsulfonyl-6-[4-[[3-(3-ethoxyphenyl)-5-(trifluoromethyl)phenyl]methyl]piperazin-1-yl]pyridazine-3-carboxamide]
ASMS ratio (%) (n = 1): 1.9%
ASMS ratio (%) (n = 2): −24.6%

CCOc1cccc(-c2cc(CN3CCN(c4ccc(C(=O)NS(=O)(=O)CCC(F)(F)F)cc4)CC3)cc(OC(F)(F)F)c2)c1 [B2N063-01, 4-[4-[[3-(3-Ethoxyphenyl)-5-(trifluoromethoxy)phenyl]methyl]piperazin-1-yl]-N-(3,3,3-trifluoropropylsulfonyl)benzamide]
ASMS ratio (%) (n = 1): −0.3%
ASMS ratio (%) (n = 2): −3.8%

CCOc1cncc(C#Cc2ccccc2CN2CCN(c3ccc(C(=O)NS(=O)(=O)C(C)(C)C)cc3)CC2)c1 [B2L070-01, N-tert-Butylsulfonyl-4-[4-[[2-[2-(5-ethoxypyridin-3-yl)ethynyl]phenyl]methyl]piperazin-1-yl]benzamide]
ASMS ratio (%) (n = 1): 4.9%
ASMS ratio (%) (n = 2): −4.2%

CCOc1cncc(-c2csc(CN3CCN(c4ccc(C(=O)NS(=O)(=O)c5ccc(NCCSc6ccccc6)c(C(F)(F)F)c5)nn4)CC3)c2)c1 [B2R094-01, 6-[4-[[4-(5-Ethoxypyridin-3-yl)thiophen-2-yl]methyl]piperazin-1-yl]-N-[4-(2-phenylsulfanylethylamino)-3-(trifluoromethyl)phenyl]sulfonylpyridazine-3-carboxamide]
ASMS ratio (%) (n = 1): 18.8%
ASMS ratio (%) (n = 2): 11.9%
